Test results as given in PubChem BioAssay (NCI).
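Method: 48-hour compound exposure of cells in 96-well plates, five concentrations, linear interpolation of endpoints. GI50 is the concentration that inhibits growth by half. TGI denotes the concentration required for complete inhibition of growth.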

Assays:
Test in all cases: growth of human tumour cells (NCI), 48 h
SK-MEL-28 melanoma = system: SK-MEL-28 melanoma
MDA-MB-435 = system: MDA-MB-435
CCRF-CEM leukemia = system: CCRF-CEM leukemia
IGROV1 ovarian = system: IGROV1 ovarian
HOP-62 NSCLC = system: HOP-62 NSCLC
NCI-H460 lung = system: NCI-H460 lung
BT-549 breast = system: BT-549 breast
OVCAR-5 ovarian = system: OVCAR-5 ovarian
COLO 205 colon = system: COLO 205 colon
SW-620 colon = system: SW-620 colon
HOP-92 NSCLC = system: HOP-92 NSCLC
UACC-257 melanoma = system: UACC-257 melanoma
MDA-MB-468 breast = system: MDA-MB-468 breast
MALME-3M melanoma = system: MALME-3M melanoma
MCF7 breast = system: MCF7 breast
OVCAR-3 ovarian = system: OVCAR-3 ovarian
SK-MEL-5 melanoma = system: SK-MEL-5 melanoma
SNB-19 CNS = system: SNB-19 CNS
HS 578T breast = system: HS 578T breast
RXF 393 renal = system: RXF 393 renal
DU-145 prostate = system: DU-145 prostate
LOX IMVI melanoma = system: LOX IMVI melanoma
SK-MEL-2 melanoma = system: SK-MEL-2 melanoma
SF-295 CNS = system: SF-295 CNS
PC-3 prostate = system: PC-3 prostate
NCI-H522 lung = system: NCI-H522 lung
SN12C renal = system: SN12C renal
A549 NSCLC = system: A549 NSCLC
CAKI-1 renal = system: CAKI-1 renal
786-0 renal = system: 786-0 renal
UO-31 renal = system: UO-31 renal
SK-OV-3 ovarian = system: SK-OV-3 ovarian
OVCAR-4 ovarian = system: OVCAR-4 ovarian
A498 renal = system: A498 renal
SF-539 CNS = system: SF-539 CNS
NCI/ADR-RES ovarian = system: NCI/ADR-RES ovarian
HCT-116 colon = system: HCT-116 colon
HCT-15 colon = system: HCT-15 colon
EKVX NSCLC = system: EKVX NSCLC
M14 melanoma = system: M14 melanoma
U251 CNS = system: U251 CNS
HL-60(TB) leukemia = system: HL-60(TB) leukemia
RPMI-8226 leukemia = system: RPMI-8226 leukemia
ACHN renal = system: ACHN renal
UACC-62 melanoma = system: UACC-62 melanoma
HCC-2998 colon = system: HCC-2998 colon
MDA-MB-231 breast = system: MDA-MB-231 breast
NCI-H226 lung = system: NCI-H226 lung
SR leukemia = system: SR leukemia
SF-268 CNS = system: SF-268 CNS
SNB-75 CNS = system: SNB-75 CNS
K-562 leukemia = system: K-562 leukemia
OVCAR-8 ovarian = system: OVCAR-8 ovarian
HT29 colon = system: HT29 colon
TK-10 renal = system: TK-10 renal
NCI-H23 lung = system: NCI-H23 lung
MOLT-4 leukemia = system: MOLT-4 leukemia
KM12 colon = system: KM12 colon

SMILES: Cn1cc(-c2nc(N)nnc2-c2c[nH]c3ccc(F)cc23)c2cc(Br)cnc21
- GI50 (SK-MEL-28 melanoma): 161 nM
- TGI (SK-MEL-28 melanoma): 19500 nM
- GI50 (MDA-MB-435): 26.2 nM
- TGI (MDA-MB-435): 78.2 nM
- GI50 (CCRF-CEM leukemia): 109 nM
- TGI (CCRF-CEM leukemia): > 67100 nM
- GI50 (IGROV1 ovarian): 72.7 nM
- TGI (IGROV1 ovarian): 14300 nM
- GI50 (HOP-62 NSCLC): 85.8 nM
- TGI (HOP-62 NSCLC): 19200 nM
- GI50 (NCI-H460 lung): 45.8 nM
- TGI (NCI-H460 lung): 3770 nM
- GI50 (BT-549 breast): 91.8 nM
- TGI (BT-549 breast): 10100 nM
- GI50 (OVCAR-5 ovarian): 217 nM
- TGI (OVCAR-5 ovarian): 14600 nM
- GI50 (COLO 205 colon): 73.7 nM
- TGI (COLO 205 colon): 886 nM
- GI50 (SW-620 colon): 48.7 nM
- TGI (SW-620 colon): 15200 nM
- GI50 (HOP-92 NSCLC): 5930 nM
- TGI (HOP-92 NSCLC): 30700 nM
- GI50 (UACC-257 melanoma): 11800 nM
- TGI (UACC-257 melanoma): 25100 nM
- GI50 (MDA-MB-468 breast): 27.2 nM
- TGI (MDA-MB-468 breast): 124 nM
- GI50 (MALME-3M melanoma): 52.5 nM
- TGI (MALME-3M melanoma): 18800 nM
- GI50 (MCF7 breast): 35.8 nM
- TGI (MCF7 breast): 12300 nM
- GI50 (OVCAR-3 ovarian): 53 nM
- TGI (OVCAR-3 ovarian): 15700 nM
- GI50 (SK-MEL-5 melanoma): 40.2 nM
- TGI (SK-MEL-5 melanoma): 1690 nM
- GI50 (SNB-19 CNS): 139 nM
- TGI (SNB-19 CNS): 12700 nM
- GI50 (HS 578T breast): 49.6 nM
- TGI (HS 578T breast): 25800 nM
- GI50 (RXF 393 renal): 47.1 nM
- TGI (RXF 393 renal): 236 nM
- GI50 (DU-145 prostate): 144 nM
- TGI (DU-145 prostate): 14100 nM
- GI50 (LOX IMVI melanoma): 63.5 nM
- TGI (LOX IMVI melanoma): 14900 nM
- GI50 (SK-MEL-2 melanoma): 87.2 nM
- TGI (SK-MEL-2 melanoma): 13600 nM
- GI50 (SF-295 CNS): 48.8 nM
- TGI (SF-295 CNS): 12300 nM
- GI50 (PC-3 prostate): 94.9 nM
- TGI (PC-3 prostate): 48900 nM
- GI50 (NCI-H522 lung): 19.3 nM
- TGI (NCI-H522 lung): 231 nM
- GI50 (SN12C renal): 204 nM
- TGI (SN12C renal): 13800 nM
- GI50 (A549 NSCLC): 172 nM
- TGI (A549 NSCLC): > 48400 nM
- GI50 (CAKI-1 renal): 76.4 nM
- TGI (CAKI-1 renal): 17000 nM
- GI50 (786-0 renal): 145 nM
- TGI (786-0 renal): 18000 nM
- GI50 (UO-31 renal): 276 nM
- TGI (UO-31 renal): 13200 nM
- GI50 (SK-OV-3 ovarian): 126 nM
- TGI (SK-OV-3 ovarian): 19600 nM
- GI50 (OVCAR-4 ovarian): 3560 nM
- TGI (OVCAR-4 ovarian): 33000 nM
- GI50 (A498 renal): 13600 nM
- TGI (A498 renal): 27100 nM
- GI50 (SF-539 CNS): 46.2 nM
- TGI (SF-539 CNS): 405 nM
- GI50 (NCI/ADR-RES ovarian): 155 nM
- TGI (NCI/ADR-RES ovarian): 1170 nM
- GI50 (HCT-116 colon): 52.1 nM
- TGI (HCT-116 colon): 13100 nM
- GI50 (HCT-15 colon): 52.3 nM
- TGI (HCT-15 colon): 11600 nM
- GI50 (EKVX NSCLC): 279 nM
- TGI (EKVX NSCLC): 17700 nM
- GI50 (M14 melanoma): 87 nM
- TGI (M14 melanoma): 16200 nM
- GI50 (U251 CNS): 57.4 nM
- TGI (U251 CNS): 13000 nM
- GI50 (HL-60(TB) leukemia): 39 nM
- TGI (HL-60(TB) leukemia): 290 nM
- GI50 (RPMI-8226 leukemia): 403 nM
- TGI (RPMI-8226 leukemia): > 100000 nM
- GI50 (ACHN renal): 91.1 nM
- TGI (ACHN renal): 15400 nM
- GI50 (UACC-62 melanoma): 32.3 nM
- TGI (UACC-62 melanoma): 12800 nM
- GI50 (HCC-2998 colon): 156 nM
- TGI (HCC-2998 colon): 5770 nM
- GI50 (MDA-MB-231 breast): 121 nM
- TGI (MDA-MB-231 breast): 8260 nM
- GI50 (NCI-H226 lung): 109 nM
- TGI (NCI-H226 lung): 12700 nM
- GI50 (SR leukemia): 38.8 nM
- TGI (SR leukemia): > 54900 nM
- GI50 (SF-268 CNS): 1460 nM
- TGI (SF-268 CNS): 18900 nM
- GI50 (SNB-75 CNS): 47.4 nM
- TGI (SNB-75 CNS): 14100 nM
- GI50 (K-562 leukemia): 39.4 nM
- TGI (K-562 leukemia): > 100000 nM
- GI50 (OVCAR-8 ovarian): 192 nM
- TGI (OVCAR-8 ovarian): 12400 nM
- GI50 (HT29 colon): 50.6 nM
- TGI (HT29 colon): 615 nM
- GI50 (TK-10 renal): 10600 nM
- TGI (TK-10 renal): 25800 nM
- GI50 (NCI-H23 lung): 198 nM
- TGI (NCI-H23 lung): 11200 nM
- GI50 (MOLT-4 leukemia): 161 nM
- TGI (MOLT-4 leukemia): 14800 nM
- GI50 (KM12 colon): 50.8 nM
- TGI (KM12 colon): 13400 nM

SMILES: C=C1NC(=O)C(C(C)CC)NC(=O)C2CSCC(NC(=O)CCC(=O)O)C(=O)NC(Cc3ccccc3)C(=O)NC(C)C(=O)NC(CC(C)CC)C(=O)NC(C(=O)NC(Cc3ccccc3)C(=O)N3CCCC3C(=O)N2)C(C)OC(=O)C(CO)NC(=O)C(C(O)COC)N(C)C(=O)C(C(C)C)NC(=O)C(CC(C)CC)NC1=O (centres undefined)
- GI50 (MDA-MB-468 breast): < 14 nM

SMILES: CCCCCCCC(=O)SCC/C=C/[C@@H]1CC(=O)NCc2cc(ccn2)C2=N[C@@](C)(CS2)C(=O)N[C@@H](C(C)C)C(=O)O1
- GI50 (MDA-MB-468 breast): 55 nM
- TGI (MDA-MB-468 breast): > 33300 nM
